Data from ChEMBL document CHEMBL1155657, “Triterpene glycosides from the Far-Eastern sea cucumber Pentamera calcigera. 1. Monosulfated glycosides and cytotoxicity of their unsulfated derivatives” (J Nat Prod, 2000).

Assays:
Format in all cases: functional, cell-based
A549 = test: Cytotoxicity against human A549 cells
[1] = Cytotoxicity against human MEL-28 cells; conditions: SK-MEL-28
P388 = test: Cytotoxicity against mouse P388 cells
HT-29 = test: Cytotoxicity against human HT29 cells

Measured: IC50

C=C(C)[C@H]1[C@@H]2C[C@@]3(C)C4=CC[C@H]5C(C)(C)[C@@H](O[C@@H]6OC[C@@H](O)[C@H](O)[C@H]6O[C@@H]6O[C@H](C)[C@@H](O[C@@H]7O[C@H](CO)[C@@H](O)[C@H](O[C@@H]8OC[C@@H](O)[C@H](OC)[C@H]8O)[C@H]7O)[C@H](O)[C@H]6O[C@@H]6O[C@H](CO)[C@@H](O)[C@H](O)[C@H]6O)CC[C@]5(C)[C@@H]4CC[C@]13C(=O)O2
5 µg/mL: all assays above

C=C(C)[C@H]1[C@@H]2C[C@@]3(C)C4=CC[C@H]5C(C)(C)[C@@H](O[C@@H]6OC[C@@H](O)[C@H](O)[C@H]6O[C@@H]6O[C@H](C)[C@@H](O[C@@H]7O[C@H](CO)[C@@H](O)[C@H](O[C@@H]8OC[C@@H](O)[C@H](OC)[C@H]8O)[C@H]7O)[C@H](O)[C@H]6O[C@@H]6O[C@H](C)[C@@H](O)[C@H](O)[C@H]6O)CC[C@]5(C)[C@@H]4CC[C@]13C(=O)O2
5 µg/mL: all assays above
